Laboratory results: article PMC8811433 (The Journal of International Medical Research, 2022)

Target: Lysine-specific demethylase 1 (LSD1) (Homo sapiens, UniProt O60341)
Assay: in vitro LSD1 activity assay
Assay type: biochemical
Conditions: read-out: % inhibition at 1000 nM

inhibition at 1 µM: 78%
Compound: C=C1C(=O)O[C@H]2[C@H]1[C@H](OC(=O)/C(C)=C/CO)CC(=C)[C@@H]1C=C[C@@](C)(O)[C@H]21 [eupalinilide B]
